Experiments:
[1] = test system: IFNα-stimulated Kit225 T cells with STAT-dependent luciferase reporter; experiment: Kit225 T cell assay, STAT-dependent luciferase reporter, IFNα stimulated; type: cell-based, human; details: 200 U/mL human recombinant IFNα, 5-6 hours, read-out: IFNa Kit225 Reporter, LE (IC50)
Description: (§1) Kit225 T cells with a stably-integrated STAT-dependent luciferase reporter were plated in RPMI (GIBCO) containing 10% heat-inactivated FBS (GIBCO) and 100 U/mL PenStrep (GIBCO). The cells were then stimulated with either 20 ng/mL human recombinant IL-23 or 200 U/mL human recombinant IFNα (PBL InterferonSource) for 5-6 hours. Luciferase expression was measured using the STEADY-GLO® Luciferase Assay System (PROMEGA®) according to the manufacturer's instructions.

[2] = test system: IL-23-stimulated Kit225 T cells with STAT-dependent luciferase reporter; experiment: Kit225 T cell assay, STAT-dependent luciferase reporter, IL-23 stimulated; type: cell-based, human; details: 20 ng/mL human recombinant IL-23, 5-6 hours, read-out: IL-23 Kit225 Reporter, LE (IC50)
Description: as §1

Compound	IC50 [1]	IC50 [2]
CNc1cc(Nc2cccn(C)c2=O)nn2c(C(=O)N[C@H]3CCOC3)cnc12 [Example 58]	0.97 µM	0.09 µM
CNc1cc(Nc2cccn(-c3ccccn3)c2=O)nn2c(C(=O)N[C@@H]3CCOC3)cnc12 [Example 62]	0.27 µM	0.64 µM
CNc1cc(Nc2cccn(-c3ccc(C)nn3)c2=O)nn2c(C(=O)NC3CCC3)cnc12 [Example 64]	0.03 µM	0.04 µM
CNc1cc(Nc2cccn(-c3ccc(C)nn3)c2=O)nn2c(C(=O)N[C@@H]3C[C@@H]3F)cnc12 [Example 65]	0.04 µM	0.06 µM
CCNC(=O)c1cnc2c(NC)cc(Nc3cccn(-c4ccccn4)c3=O)nn12 [Example 66]	0.18 µM	0.09 µM
CCNC(=O)c1cnc2c(NC)cc(Nc3cccn(-c4cccc(F)n4)c3=O)nn12 [Example 67]	0.14 µM	0.07 µM
CNc1cc(Nc2cccn(C)c2=O)nn2c(C(=O)NC3CCC3)cnc12 [Example 68]	0.01 µM	0.03 µM
CNc1cc(Nc2cncn(-c3ccccn3)c2=O)nn2c(C(=O)NC3CCC3)cnc12 [Example 71]	0.12 µM	0.21 µM
CNc1cc(Nc2cccn(-c3cccc(C(C)(C)O)n3)c2=O)nn2c(C(=O)NC3CCC3)cnc12 [Example 77]	0.03 µM	0.02 µM
CNc1cc(Nc2cncn(-c3ccc(C)nn3)c2=O)nn2c(C(=O)NC3CCC3)cnc12 [Example 78]	0.18 µM	0.23 µM
CNc1cc(Nc2cncn(-c3ccc(C)nn3)c2=O)nn2c(C(=O)N[C@@H]3C[C@@H]3F)cnc12 [Example 80]	0.33 µM	1.74 µM
CNc1cc(Nc2cccn(-c3cccc(C(C)(C)O)n3)c2=O)nn2c(C(=O)NC3CC3)cnc12 [Example 81]	0.12 µM	0.18 µM
CNc1cc(Nc2cccn(-c3cccc(C(C)(C)O)n3)c2=O)nn2c(C(=O)N[C@@H]3C[C@@H]3F)cnc12 [Example 82]	0.04 µM	0.04 µM
CNc1cc(Nc2nccn(C)c2=O)nn2c(C(=O)NC3CCC3)cnc12 [Example 84]	4.27 µM	3.86 µM
CNc1cc(Nc2cc(C)cn(-c3ccc(C)nn3)c2=O)nn2c(C(=O)NC3CC3)cnc12 [Example 91]	0.15 µM	0.23 µM
CNc1cc(Nc2cc(C)cn(-c3ccc(C)nn3)c2=O)nn2c(C(=O)NC3CCC3)cnc12 [Example 92]	0.62 µM	0.42 µM
CNc1cc(Nc2cc(F)cn(-c3ccc(C)nn3)c2=O)nn2c(C(=O)NC3CC3)cnc12 [Example 94]	0.05 µM	0.04 µM
CNc1cc(Nc2cccn(-c3ccc(C)nn3)c2=O)nn2c(C(=O)NC3CCCC3)cnc12 [Example 95]	0.15 µM	0.16 µM
CNc1cc(Nc2cccn(-c3ccc(C)nn3)c2=O)nn2c(C(=O)NC(C)C)cnc12 [Example 97]	0.11 µM	0.19 µM
CNc1cc(Nc2cccn(-c3ccc(C4CC4)nn3)c2=O)nn2c(C(=O)N[C@@H]3C[C@@H]3F)cnc12 [Example 98]	0.02 µM	0.04 µM
CCNC(=O)c1cnc2c(NC)cc(Nc3cccn(-c4ccc(C)nn4)c3=O)nn12 [Example 99]	0.23 µM	0.11 µM

Compound	IC50 [1]	IC50 [2]
CCCc1ccc(-n2cccc(Nc3cc(NC)c4ncc(C(=O)N[C@@H]5C[C@@H]5F)n4n3)c2=O)nn1 [Example 100]	0.03 µM	0.04 µM
CNc1cc(Nc2cccn(-c3ccc(C)nn3)c2=O)nn2c(C(=O)NCCF)cnc12 [Example 102]	0.26 µM	0.26 µM
CNc1cc(Nc2cccn(-c3cnc(C)cn3)c2=O)nn2c(C(=O)N[C@@H]3C[C@@H]3F)cnc12 [Example 103]	0.02 µM	0.06 µM
CNc1cc(Nc2cccn(-c3cccnn3)c2=O)nn2c(C(=O)NC3CCC3)cnc12 [Example 104]	0.08 µM	0.2 µM
CCC(C)NC(=O)c1cnc2c(NC)cc(Nc3cccn(-c4cccnn4)c3=O)nn12 (stereo not shown) [Example 105]	0.09 µM	0.32 µM
CCNC(=O)c1cnc2c(NC)cc(Nc3cccn(-c4ccn(C)n4)c3=O)nn12 [Example 107]	0.27 µM	0.23 µM
CNc1cc(Nc2cccn(-c3ccn(C)n3)c2=O)nn2c(C(=O)NC(C)C)cnc12 [Example 108]	0.08 µM	0.21 µM
CNc1cc(Nc2cccn(-c3cccnn3)c2=O)nn2c(C(=O)NCC(C)C)cnc12 [Example 112]	0.52 µM	0.28 µM
CNc1cc(Nc2cccn(C)c2=O)nn2c(C(=O)N[C@@H]3C[C@@H]3F)cnc12 [Example 116]	0.05 µM	0.08 µM
CNc1cc(Nc2cccn(C)c2=O)nn2c(C(=O)NCC(C)(C)CO)cnc12 [Example 117]	0.15 µM	0.24 µM
CNc1cc(Nc2cccn(-c3ccccc3)c2=O)nn2c(C(=O)NC3CC3)cnc12 [Example 119]	0.12 µM	0.08 µM
CNc1cc(Nc2cccn(-c3ccccc3)c2=O)nn2c(C(=O)NC3(C#N)CC3)cnc12 [Example 120]	0.07 µM	0.2 µM
CNc1cc(Nc2cc(F)cn(CC(C)(C)O)c2=O)nn2c(C(=O)NC3CC3)cnc12 [Example 121]	0.29 µM	0.59 µM
CNc1cc(Nc2cccn(-c3ccncc3)c2=O)nn2c(C(=O)NC3CC3)cnc12 [Example 128]	0.24 µM	0.44 µM
CNc1cc(Nc2cccn(C)c2=O)nn2c(C(=O)NC(C)C#N)cnc12 (stereo not shown) [Example 129]	0.16 µM	0.44 µM
CNc1cc(Nc2cccn(C)c2=O)nn2c(C(=O)NC(C)(C)C#N)cnc12 [Example 130]	0.31 µM	0.64 µM
CNc1cc(Nc2cccn(-c3ccnc(F)c3)c2=O)nn2c(C(=O)NC3CC3)cnc12 [Example 134]	0.14 µM	0.22 µM
CNc1cc(Nc2cccn(-c3ccc(C(C)O)cc3)c2=O)nn2c(C(=O)NC3CC3)cnc12 (stereo not shown) [Example 135]	0.24 µM	0.28 µM
CNc1cc(Nc2cccn(-c3ccc(C(F)(F)F)cc3)c2=O)nn2c(C(=O)NC3(C#N)CC3)cnc12 [Example 137]	0.14 µM	0.29 µM
CNc1cc(Nc2cccn(-c3ccc(N4CCOCC4)cc3)c2=O)nn2c(C(=O)NC3CC3)cnc12 [Example 139]	0.19 µM	0.25 µM
CNc1cc(Nc2cccn(-c3ccc(C(C)O)cc3)c2=O)nn2c(C(=O)N[C@@H]3C[C@@H]3F)cnc12 (stereo partly shown) [Example 141]	0.18 µM	0.16 µM

Compound	IC50 [1]	IC50 [2]
CNc1cc(Nc2cccn(-c3ccc(C(C)O)cc3)c2=O)nn2c(C(=O)NC3CCC3)cnc12 (stereo not shown) [Example 142]	0.09 µM	0.07 µM
CNc1cc(Nc2cccn(-c3cccc(F)n3)c2=O)nn2c(C(=O)NC3CC3)cnc12 [Example 144]	0.08 µM	0.14 µM
CNc1cc(Nc2cccn(-c3ccc(N4CCOCC4)cc3)c2=O)nn2c(C(=O)NC3CC3F)cnc12 (stereo not shown) [Example 147]	0.02 µM	0.03 µM
CNc1cc(Nc2cccn(-c3ccccc3)c2=O)nn2c(C(=O)NC3(C#N)CCC3)cnc12 [Example 148]	0.28 µM	0.12 µM
CNc1cc(Nc2cc(F)cn(-c3ccccn3)c2=O)nn2c(C(=O)NC3CC3)cnc12 [Example 149]	0.06 µM	0.07 µM
CNc1cc(Nc2cc(F)cn(-c3ccccn3)c2=O)nn2c(C(=O)NC3CCC3)cnc12 [Example 150]	0.02 µM	0.06 µM
CNc1cc(Nc2cc(F)cn(-c3ccccn3)c2=O)nn2c(C(=O)N[C@@H]3C[C@@H]3F)cnc12 [Example 151]	0.02 µM	0.03 µM
CNc1cc(Nc2cccn(-c3ccccc3F)c2=O)nn2c(C(=O)NC3CC3)cnc12 [Example 152]	0.12 µM	0.36 µM
CNc1cc(Nc2cccn(-c3cc(C)n(C)n3)c2=O)nn2c(C(=O)NC3CC3)cnc12 [Example 154]	0.03 µM	0.04 µM
CNc1cc(Nc2cccn(-c3ccccc3F)c2=O)nn2c(C(=O)NC3(C#N)CC3)cnc12 [Example 156]	0.06 µM	0.08 µM
CNc1cc(Nc2cccn(-c3cc(C)on3)c2=O)nn2c(C(=O)NC3CCC3)cnc12 [Example 157]	0.02 µM	0.03 µM
CNc1cc(Nc2cccn(-c3ccn(C)n3)c2=O)nn2c(C(=O)NC3CC3)cnc12 [Example 158]	0.1 µM	0.13 µM
CNc1cc(Nc2cccn(-c3ccn(C)n3)c2=O)nn2c(C(=O)NC3CCC3)cnc12 [Example 159]	0.04 µM	0.03 µM
CNc1cc(Nc2cccn(-c3cc(C)n(C)n3)c2=O)nn2c(C(=O)N[C@@H]3C[C@@H]3F)cnc12 [Example 160]	0.03 µM	0.05 µM
CNc1cc(Nc2cccn(C3(C)CC3)c2=O)nn2c(C(=O)NC3CC3)cnc12 [Example 161]	0.34 µM	0.71 µM
CNc1cc(Nc2cccn(C3(C)CC3)c2=O)nn2c(C(=O)NC3(C#N)CC3)cnc12 [Example 162]	0.25 µM	0.65 µM
CNc1cc(Nc2cccn(-c3ccn(C4CC4)n3)c2=O)nn2c(C(=O)N[C@@H]3C[C@@H]3F)cnc12 [Example 164]	0.02 µM	0.05 µM
CNc1cc(Nc2cccn(-c3ccn(C4CC4)n3)c2=O)nn2c(C(=O)NC3CC3)cnc12 [Example 165]	0.13 µM	0.43 µM
CNc1cc(Nc2cccn(-c3ccn(C4CC4)n3)c2=O)nn2c(C(=O)NC3CCC3)cnc12 [Example 166]	0.05 µM	0.29 µM
CNc1cc(Nc2cccn(-c3cccc(F)n3)c2=O)nn2c(C(=O)NC3(C#N)CC3)cnc12 [Example 167]	0.13 µM	0.1 µM
